Converted amounts (≈) assume the structure as drawn.

In data set [1] the test system is Mycobacterium tuberculosis. In words: Antimicrobial activity against Mycobacterium tuberculosis H37Rv ATCC 27294 assessed as growth inhibition after 5 days by microdilution method. The following applies: H37Rv ATCC 27294, 120 h. Type of data set: functional. A general note: In broth dilution the organism is exposed to a series of concentrations in liquid medium.

Data set [2] concerns Mycobacterium tuberculosis. Put plainly: Antimicrobial activity against clinical isolate Mycobacterium tuberculosis Erdman assessed as growth inhibition after 7 days by turbidometry. Type of data set: functional. The following applies: 168 h.
Data set [3] concerns Mycobacterium tuberculosis. In words: Antimicrobial activity against clinical isolate Mycobacterium tuberculosis H37Rv ATCC 27294 assessed as growth inhibition after 7 days by turbidometry. Type of data set: functional. The following applies: H37Rv ATCC 27294, 168 h.
For data set [4], the system named is Mycobacterium tuberculosis. In words: Antimicrobial activity against clinical isolate Mycobacterium tuberculosis ATCC25618 assessed as growth inhibition after 7 days by turbidometry. The following applies: ATCC25618, 168 h. Type of data set: functional.
The test system of data set [5] is Mycobacterium tuberculosis. Put plainly: Antimicrobial activity against clinical isolate Mycobacterium tuberculosis Harlingen assessed as growth inhibition after 7 days by turbidometry. The data set is classed as functional. The following applies: 168 h.
In data set [6] the test system is Mycobacterium tuberculosis. In words: Antimicrobial activity against clinical isolate Mycobacterium tuberculosis DKU211 assessed as growth inhibition after 7 days by turbidometry. Type of data set: functional. The note with it: DKU211, 168 h.
Data set [7] relates to Mycobacterium tuberculosis. In words: Antimicrobial activity against clinical isolate Mycobacterium tuberculosis DKU76 assessed as growth inhibition after 7 days by turbidometry. The note with it: DKU76, 168 h. Type of data set: functional.
Data set [8] concerns Mycobacterium tuberculosis. Put plainly: Antimicrobial activity against clinical isolate Mycobacterium tuberculosis JAL assessed as growth inhibition after 7 days by turbidometry. Type of data set: functional. The following applies: 168 h.
Data set [9] deals with Mycobacterium tuberculosis. In words: Antimicrobial activity against clinical isolate Mycobacterium tuberculosis Beijing assessed as growth inhibition after 7 days by turbidometry. Type of data set: functional. The following applies: 168 h.
Data set [10] has as its system Mycobacterium tuberculosis. In words: Antimicrobial activity against clinical isolate Mycobacterium tuberculosis ATCC35811 assessed as growth inhibition after 7 days by turbidometry. The data set is classed as functional. The following applies: ATCC35811, 168 h.
The subject of data set [11] is Mycobacterium tuberculosis. Put plainly: Antimicrobial activity against clinical isolate Mycobacterium tuberculosis DKU97A assessed as growth inhibition after 7 days by turbidometry. Type of data set: functional. The following applies: 168 h.
Data set [12] concerns Mycobacterium tuberculosis. Put plainly: Antimicrobial activity against clinical isolate Mycobacterium tuberculosis DKU220 assessed as growth inhibition after 7 days by turbidometry. Type of data set: functional. The note with it: DKU220, 168 h.
For data set [13], the system named is Mycobacterium tuberculosis. In words: Bactericidal activity against Mycobacterium tuberculosis H37Rv ATCC 27294 after 5 days by microdilution method. Type of data set: functional. The note with it: H37Rv ATCC 27294, 120 h.
Data set [14] concerns Mycobacterium tuberculosis. In words: Ratio of MBC for Mycobacterium tuberculosis H37Rv ATCC 27294 to MIC for Mycobacterium tuberculosis H37Rv ATCC 27294. The data set is classed as functional.
Data set [15] is described as follows: Solubility of the compound. The data set is classed as physicochemical.

For orientation: MIC80 means the lowest concentration that inhibits either 80% of growth or 80% of the strains tested, depending on the study. For `O=c1cc(-c2nc(-c3ccc(Cl)cc3)cs2)cc[nH]1`, the MIC80 in data set [1] was over 32 µg/mL.
For the compound `CCCc1cc(-c2ncc(-c3ccnc(OC)c3)s2)ccn1`, the MIC80 in data set [1] stood at 32 µg/mL (≈ 103 µM).
On the same count and under the same terms, to `CCCc1cc(-c2nc(-c3cccc(C(F)(F)F)c3)cs2)ccn1` belongs 0.5 µg/mL (≈ 1.44 µM).
As for `CCCc1cc(-c2nc(-c3ccc(OCC4CC4)cc3)cs2)ccn1`, the MIC80 turned out to be 0.5 µg/mL (≈ 1.43 µM) in data set [2]; 0.5 µg/mL (≈ 1.43 µM) in data set [3]; 0.5 µg/mL (≈ 1.43 µM) in data set [4]; 0.25 µg/mL (≈ 0.713 µM) in [5]; 0.5 µg/mL (≈ 1.43 µM) in data set [6]; 1 µg/mL (≈ 2.85 µM) in [7]. The MIC80 in data set [8] stood at 0.5 µg/mL (≈ 1.43 µM); in [1], 0.25 µg/mL (≈ 0.713 µM); in data set [9], 0.25 µg/mL (≈ 0.713 µM); in data set [10], 1 µg/mL (≈ 2.85 µM); in data set [11], 0.5 µg/mL (≈ 1.43 µM); in data set [12], 0.5 µg/mL (≈ 1.43 µM).
For the compound `CCCc1cc(-c2nc(-c3ccc(Cl)cc3)c(C(=O)O)s2)ccn1`, in [1], the MIC80 is over 32 µg/mL.
As to `Clc1ccc(-c2csc(-c3ccnc(OCC4CC4)c3)n2)cc1`, the MIC80 in [1] was 2 µg/mL (≈ 5.83 µM).
For `CCCc1cc(-c2nc(-c3ccc(Cl)cc3)c(C(N)=O)s2)ccn1`, the MIC80 in data set [1] was over 32 µg/mL.
For `CCCc1cc(-c2ncc(-c3ccncc3)s2)ccn1`, in data set [1], the MIC80 came out at 32 µg/mL (≈ 114 µM).
On the same count and under the same terms, to `CCc1cc(-c2nc(-c3ccc(Cl)cc3)cs2)ccn1` belongs 2 µg/mL (≈ 6.65 µM); to `CCCc1cc(-c2nc(-c3ccnc(OCCN(C)C)c3)cs2)ccn1`, 8 µg/mL (≈ 21.7 µM).
Same read-out and setting: to `CCCc1cc(-c2nc(-c3ccccc3)cs2)ccn1` belongs 1 µg/mL (≈ 3.57 µM).
The same measure, in the same setting: to `CCCc1cc(-c2nc(-c3ccc(C(F)(F)F)cc3)cs2)ccn1` belongs 1 µg/mL (≈ 2.87 µM).
Turning to `NNC(=O)c1ccncc1` [ISONIAZID], the MIC80 in data set [2], in data set [3], in [4], in data set [5], in [6] and in [7] was 0.06 µg/mL (≈ 0.438 µM) each time. Moreover, the MIC80 in [8], in data set [9], in data set [10], in data set [11] and in data set [12] was 0.06 µg/mL (≈ 0.438 µM) each time.
Regarding `CCCc1cc(-c2nc(-c3cncnc3)cs2)ccn1`, in data set [1], the MIC80 came to 4 µg/mL (≈ 14.2 µM).
On the same count and under the same terms, to `Clc1ccc(-c2csc(-c3ccnc(N4CCOCC4)c3)n2)cc1` belongs over 32 µg/mL.
Same read-out and setting: to `CCNc1cc(-c2nc(-c3ccc(Cl)cc3)cs2)ccn1` belongs 8 µg/mL (≈ 25.3 µM); to `CCCc1cc(-c2nc(-c3ccnc(O[C@H]4CCOC4)c3)cs2)ccn1`, 2 µg/mL (≈ 5.44 µM); to `CCCc1cc(-c2nc(-c3ccc(C(=O)O)cc3)cs2)ccn1`, 16 µg/mL (≈ 49.3 µM).
A word on the MBC: it is the smallest concentration meeting the test's criterion for killing. Compound `CCc1cc(-c2ncc(-c3ccnc(OC)c3)s2)ccn1` had an MBC in data set [13] of 0.5 µg/mL (≈ 1.68 µM).
As for `COCc1cc(-c2nc(-c3ccc(Cl)cc3)cs2)ccn1`, the MIC80 in [1] worked out at 4 µg/mL (≈ 12.6 µM).
For orientation: solubility means how much of the substance goes into solution per volume. Compound `CCCc1cc(-c2nc(-c3ccc(OCCN4CCCC4)cc3)cs2)ccn1` had an MBC in [13] of 4.9 µg/mL (≈ 12.5 µM). In addition, the Ratio in data set [14] was 1. In data set [15], this compound registered a solubility of 155 µM (≈ 60.8 µg/mL). The MIC80 in data set [1] is 4.9 µg/mL (≈ 12.5 µM).
With `CCCc1cc(-c2nc(-c3ccc(OCCOC)cc3)cs2)ccn1`, the MIC80 in [1] came out at 1 µg/mL (≈ 2.82 µM).
The same measure, in the same setting: to `CCCc1cc(-c2nc(-c3ccnc(OC)c3)cs2)ccn1` belongs 0.2 µg/mL (≈ 0.642 µM); to `CCCc1cc(-c2nc(-c3ccc(OC)cc3)cs2)ccn1`, 1 µg/mL (≈ 3.22 µM); to `CCCc1cc(-c2csc(-c3ccnc(CCC)c3)n2)ccn1`, 0.25 µg/mL (≈ 0.773 µM).
In [13], `CCCc1cc(-c2nc(-c3ccnc(OCC)c3)cs2)ccn1` displayed an MBC of 0.1 µg/mL (≈ 0.307 µM). The MIC80 in data set [1] amounted to 0.1 µg/mL (≈ 0.307 µM).
`CCCc1cc(-c2nc(-c3ccccc3F)cs2)ccn1`: the MIC80 in data set [1] is 2 µg/mL (≈ 6.7 µM).
For the compound `CCCc1cc(-c2nc(-c3cccnc3)cs2)ccn1`, in data set [1], the MIC80 was found to be 1.6 µg/mL (≈ 5.69 µM).
Regarding `CCCc1cc(-c2nc(-c3ccc(OCCN4CCOCC4)cc3)cs2)ccn1`, the MIC80 worked out at 1 µg/mL (≈ 2.44 µM) in data set [2]; 2 µg/mL (≈ 4.88 µM) in [3]; 2 µg/mL (≈ 4.88 µM) in data set [4]; 0.5 µg/mL (≈ 1.22 µM) in data set [5]; 1 µg/mL (≈ 2.44 µM) in data set [6]; 1 µg/mL (≈ 2.44 µM) in [7]. Besides, the MIC80 came to 1 µg/mL (≈ 2.44 µM) in [8]; 1 µg/mL (≈ 2.44 µM) in data set [1]; 1 µg/mL (≈ 2.44 µM) in data set [9]; 1 µg/mL (≈ 2.44 µM) in [10]; 1 µg/mL (≈ 2.44 µM) in data set [11]; 2 µg/mL (≈ 4.88 µM) in [12]. Also, the MBC in data set [13] worked out at 5.2 µg/mL (≈ 12.7 µM). In addition, in data set [14], the Ratio stood at 2. This compound also had a solubility in [15] of 29.8 µM (≈ 12.2 µg/mL).
For the compound `CCCc1cc(-c2nc(-c3ccc(Cl)cc3)c(C(=O)OCC)s2)ccn1`, in data set [1], the MIC80 was over 32 µg/mL.
Same read-out and setting: to `CCCc1cc(-c2nc(-c3ccc(NC(=O)NCC)cc3)cs2)ccn1` belongs 1 µg/mL (≈ 2.73 µM).
On the same count and under the same terms, to `CC(=O)N1CCC(c2nc(-c3ccc(Cl)cc3)cs2)CC1` belongs over 32 µg/mL.
Regarding `CCCc1cc(-c2nc(-c3cccc(F)c3)cs2)ccn1`, the MIC80 in data set [1] is 1 µg/mL (≈ 3.35 µM).
For the compound `CCCc1cc(-c2nc(-c3ccc(F)cc3)cs2)ccn1`, the MIC80 in data set [1] was found to be 1 µg/mL (≈ 3.35 µM).
For the compound `CCCc1cc(-c2nc(-c3ccc(OCCN(C)C)cc3)cs2)ccn1`, the solubility in data set [15] turned out to be 279 µM (≈ 102 µg/mL). Also, in data set [1], the MIC80 came out at 16 µg/mL (≈ 43.5 µM).
Take `CCCc1cc(-c2nc(-c3ccccn3)cs2)ccn1`: the MIC80 in [1] was determined as 4 µg/mL (≈ 14.2 µM).
`CCCc1cc(-c2nc(-c3ccc(Cl)cc3)cs2)ccn1` displayed an MBC in [13] of 2 µg/mL (≈ 6.35 µM). The MIC80 in [1] was found to be 1 µg/mL (≈ 3.18 µM).
As to `CCCc1cc(-c2nc(-c3ccccc3OC)cs2)ccn1`, the MIC80 in data set [1] came out at 1 µg/mL (≈ 3.22 µM).
On the same count and under the same terms, to `CN1CCC(c2nc(-c3ccc(Cl)cc3)cs2)CC1` belongs over 32 µg/mL.
For `CCCc1cc(-c2nc(-c3cccc(OC)c3)cs2)ccn1`, the MIC80 is 0.25 µg/mL (≈ 0.805 µM) in [2]; 0.25 µg/mL (≈ 0.805 µM) in [3]; 0.25 µg/mL (≈ 0.805 µM) in data set [4]; 0.13 µg/mL (≈ 0.419 µM) in [5]; 1 µg/mL (≈ 3.22 µM) in data set [6]; 1 µg/mL (≈ 3.22 µM) in data set [7]. For the same compound, the MIC80 in data set [8] is 0.5 µg/mL (≈ 1.61 µM); in data set [1], 0.5 µg/mL (≈ 1.61 µM); in data set [9] it was 0.13 µg/mL (≈ 0.419 µM); in data set [10] it was 0.5 µg/mL (≈ 1.61 µM); in data set [11], 0.5 µg/mL (≈ 1.61 µM); in [12] it was 1 µg/mL (≈ 3.22 µM).
For the compound `CCCc1cc(-c2nc(-c3ccccc3C(F)(F)F)cs2)ccn1`, the MIC80 in data set [1] is over 32 µg/mL.
The same measure, in the same setting: to `CCCc1cc(-c2nc(-c3ccc(C(=O)NS(C)(=O)=O)cc3)cs2)ccn1` belongs 32 µg/mL (≈ 79.7 µM); to `Clc1ccc(-c2csc(-c3ccnc(C4CC4)c3)n2)cc1`, 4 µg/mL (≈ 12.8 µM).
`CCCc1cc(-c2nc(-c3ccc(C)cc3)cs2)ccn1` [FATOSTATIN] had a solubility in [15] of 0.4 µM (≈ 0.118 µg/mL). Besides, the MIC80 in data set [1] came out at 1 µg/mL (≈ 3.4 µM).
`CCCc1cc(-c2nc(-c3ccc(Cl)cc3)c(C)s2)ccn1`: the MIC80 in data set [1] amounted to 4 µg/mL (≈ 12.2 µM).
Still for that read-out and setting: to `CCCc1cc(-c2nsc(-c3ccnc(CCC)c3)n2)ccn1` belongs 32 µg/mL (≈ 98.6 µM).

The record behind these values is ChEMBL document CHEMBL3351699, “Diarylthiazole: an antimycobacterial scaffold potentially targeting PrrB-PrrA two-component system” (J Med Chem, 2014).
